Laboratory results published in patent US20140371137A1, “PREPARATION OF PNA-6-AMINOGLUCOSAMINE CONJUGATES AS ANTIVIRAL AGENTS” (priority 2013, published 2014).

What was measured:
[1] = tested on: HCV subgenomic replicons in MH14 cells; test: Inhibition of viral translation and replication in MH14 cells carrying HCV subgenomic replicons; format: cell-based
HCV 5'NTR RNA = test: Gel electrophoretic mobility shift analysis (EMSA) of PNA-glucosamine conjugate binding to HCV 5'NTR RNA transcript; settings: for gel retardation of the labeled RNA: 20 nM HCV 5'NTR RNA transcript
Procedure: FIG. 10. Stoichiometry of binding of PNA-glucosamine conjugate to its target sequence: (A) The PCR product corresponding to domains III and IV of 5′NTR and the 36 nucleotide of the N-terminal coding sequence of the HCV core were transcribed to generate 244-base runoff transcripts using a T7 transcription kit from Roche Applied Sciences. The 20 nM of internally 32P labeled HCV 5′NTR RNA transcript was incubated either with various concentrations of PNA-glucosamine conjugate complementary to sequence 352-338 in domain IV of the 5′NTR or (B) scramble PNA-glucosamine conjugate. Binding of the PNA-glucosamine conjugate (PNAHCV 352-338) to its target sequence was evaluated by gel electrophoretic mobility shift analysis (EMSA). Lane 1, control without PNA conjugate; lane 2, 10 nM of PNA conjugate; lane 3, 15 nM of PNA conjugate; lane 4, 20 nM of conjugate, lane 5, 25 nM of conjugate.
Target specificity of antisense PNA: Using a PNA-glucosamine conjugate targeted to the translation initiation window (352-338: […]) in Domain IV of HCV 5′NTR, we have shown that it has great specificity for the targeted sequence. The PNA-glucosamine conjugate ([…]) forms a tight complex with HCV RNA at a stoichiometric ratio (FIG. 10).

PNAHCV353-338: PNA-glucosamine conjugate targeted to the translation initiation window (352-338: TTCGTGCTCATGGTG) in Domain IV of HCV 5'NTR (all peptide nucleic acid (PNA); glucosamine conjugate attached)
HCV translation (viral protein NS5B, Western blot) ([1]; 72 h, 50, 100 and 200 nM conjugate (FIG. 13A)): efficiently blocked at a subnanomolar concentration | HCV replication (viral RNA, RT PCR) ([1]; 72 h, 50, 100 and 200 nM conjugate (FIG. 13B)): efficiently blocked at a subnanomolar concentration | gel retardation of the labeled RNA (HCV 5'NTR RNA; 1:0.5 ratio of target RNA to PNA conjugate): 50% | gel retardation of the labeled RNA (HCV 5'NTR RNA; 1:0.75 ratio of target RNA to PNA conjugate): 75% | gel shift of the target RNA (HCV 5'NTR RNA; stoichiometric ratios of 1:1 or greater): complete gel shift
